Patent publication US8748373B2, “Hepatitis B virus compositions and methods of use” (priority 2007, dated 2014)

Experiments:
[1] = system: HBV; settings: patients chronically infected with HBV; cited from earlier work
[2] = system: HDV; experiment: Inhibition of HDV infection of primary human hepatocytes, antigenomic HDV RNA by real-time PCR; assay type: cell-based; settings: for Inhibition of HDV replication: 50 nM final concentration, primary human hepatocytes, 7 days
Excerpt: (§1) In order to test inhibitory activity of the IA and related proteins, primary human hepatocytes infected in the presence of 5% polyethylene glycol 8000 (Sigma) were used with in vitro assembled HDV at a multiplicity of 10 genome equivalents (GE) per cell, or by HBV at a multiplicity of 50 GE/cell. […] One related protein was the S1S2, lacking the Fc domain (FIG. 1B). Another was a synthetic peptide corresponding to positions 2-48 of the ayw PreS1, with myristoylation at the N terminal glycine as described in Engelke, et al., 2006, Hepatology, 43:750-760. After 7-8 days total, cell RNA was extracted and HDV antigenomic RNA and HBV RNA were quantitated using real-time PCR.
Others have shown that peptides based on the N terminus of HBV preS1 are able to interfere with infection of primary hepatocytes and of HepaRG cells, a cell line made from a differentiated liver tumor (Gripon, et al., 2005, J. Virol., 79:1613-1622, Gripon, et al., 2002, Proc. Natl. Acad. Sci., USA 99:15655-15660). […] Secreted IAs were tested for their ability to interfere with the infection of primary human hepatocytes by HDV. For these studies the source of IA was simple dilutions of the media from transiently transfected cells that both expressed and secreted the IA. To assess HDV replication the total RNA was extracted after 7 days and antigenomic RNA was quantitated by real-time PCR.

[3] = Ultracentrifugation of media to test whether released IA is a soluble protein; assay type: physicochemical; settings: conditions that pellet HDV and HBV subviral particles
Excerpt: In addition, experiments were designed to tested whether the released IA was actually a soluble protein. Media samples containing albumin and secreted […] were clarified by low speed centrifugation and then subjected to ultracentrifugation, using conditions that pellet HDV and HBV subviral particles. It was observed that about >85% of the albumin and S1S2-IA remained in the supernatant. Without wishing to be bound by any particular theory, it is believed that because the IAs behaved similar to albumin, than IAs were soluble proteins.

[4] = system: HBV; experiment: Inhibition of HBV infection of primary human hepatocytes, HBV RNA by real-time PCR; assay type: cell-based, Hepatitis B virus
Excerpt: as §1
In parallel with the experiment shown in FIG. 4B, experiments were designed to determined whether S1S2-IA would also act on HBV infection.

[5] = system: HBV; settings: in vivo; cited from earlier work

C=C1[C@H](CO)[C@@H](O)C[C@@H]1n1cnc2c(=O)[nH]c(N)nc21 [Entecavir]
Suppression of HBV levels in serum [1]: 100,000 fold

S1-IA: immunoadhesin: HBV preS1 domain (1-119, adw2) fused N terminally to Fc region of a rabbit IgG heavy chain
Inhibition of HDV replication [2]: 90%

S1S2-IA: immunoadhesin: HBV preS1 plus preS2 domains fused to Fc region of a rabbit IgG heavy chain
Fraction remaining in the supernatant after ultracentrifugation [3]: > 85%
Inhibition of HBV infection compared with HDV infection ([4]; parallel experiments): not significantly different
Inhibition of HBV infection ([4]; primary human hepatocytes, HBV RNA): there was inhibition
Inhibition of HDV replication [2]: 90%
Effect of 30 minute pretreatment on level of inhibition of HDV ([2]; pretreatment in addition to treatment during infection): did not significantly increase the level of inhibition

acylated peptide: synthetic peptide corresponding to positions 2-48 of the ayw PreS1, with myristoylation at the N terminal glycine [reference compound]
Inhibition of HDV replication compared with S1-IA and S1S2-IA ([2]; primary human hepatocytes, 2, 10 and 50 nM): more inhibition than the two IA

α-interferon
Patients in whom effective [5]: about 33%
